Measurements as given in ChEMBL document CHEMBL3352022, “Preparation and biological evaluation of 1'-cyano-2'-C-methyl pyrimidine nucleosides as HCV NS5B polymerase inhibitors” (Bioorg Med Chem Lett, 2014).
pEC50, pIC50: −log10 of the molar value.

Legend:
[1] = Inhibition of HCV1b NS5B polymerase; design: species or system Hepatitis C virus subtype 1b
Hepatitis C virus [2] = test: Antiviral activity against HCV1b assessed as inhibition of viral replication by cell based 384 well format assay; assay type: functional, Hepacivirus hominis; settings: genotype 1b
Hepatitis C virus [3] = test: Antiviral activity against HCV1a assessed as inhibition of viral replication by cell based 384 well format assay; assay type: functional, Hepacivirus hominis; settings: subtype 1a
Hepatitis C virus [4] = test: Antiviral activity against HCV1b in Rluc cells assessed as TP level per million cells after 24 hrs by liquid chromatography; assay type: functional, Hepacivirus hominis, genotype 1b

Row | Compound | pIC50 [1] | pEC50 (Hepatitis C virus [2]) | pEC50 (Hepatitis C virus [3]) | Activity (Hepatitis C virus [4]) [pmol]
1 | C[C@@]1(O)[C@H](O)[C@@H](CO)O[C@@]1(C#N)c1ccc2c(N)ncnn12 |  | < 4.05 | < 4.05 | 
2 | CC(C)OC(=O)[C@H](C)N[P@+]([O-])(OC[C@H]1O[C@@](C#N)(c2ccc3c(N)ncnn23)[C@](C)(O)[C@@H]1OC(=O)C(C)C)Oc1ccccc1 [GS-6620] |  | 6.62 | 7.03 | 40
3 | C[C@@]1(O)[C@H](O)[C@@H](CO)O[C@H]1n1ccc(N)nc1=O | 5.78 | 5.55 | 5.60 | 
4 | CC(C)OC(=O)[C@H](C)N[P@](=O)(OC[C@H]1O[C@@](C#N)(n2ccc(N)nc2=O)[C@](C)(O)[C@@H]1OC(=O)C(C)C)Oc1ccccc1 |  | 6.22 | 6.60 | 

Continued, in another order:

Row | pIC50 [1] | Compound | pEC50 (Hepatitis C virus [2]) | pEC50 (Hepatitis C virus [3]) | Activity (Hepatitis C virus [4]) [pmol]
5 | 4.57 | C[C@@]1(O)[C@H](O)[C@@H](CO)O[C@@]1(C#N)n1ccc(=O)[nH]c1=O | < 4.05 | < 4.05 | 
6 | 4.75 | C[C@@]1(O)[C@H](O)[C@@H](CO)O[C@@]1(C#N)n1ccc(N)nc1=O | < 4.05 | 4.12 | 
